From patent US20120077957A1, “Lactam-Bridged Melanocortin Receptor-Specific Peptides” (PALATIN TECHNOLOGIES, INC., priority 2009, published 2012) come the findings set out here.

Like-named read-outs stand apart in the source and are kept apart here. Bridge positions count the residues as written; N and C are the ends. Square brackets hold non-standard residues; d marks the D form. Peptide text beside a SMILES is read from it.

In general, Ki refers to the dissociation constant of the complex between target and ligand, obtained from inhibition or displacement. What is called EC50 is the concentration giving half of the maximal effect. The term Emax denotes the greatest response seen or fitted, relative to the assay's reference.

Test [1] addresses T1, human MC4-R (Homo sapiens, UniProt P32245).
T1 construct: expressed in transfected cells; host or cells: HEK293 T-REx (tetracycline-regulated, Invitrogen); cell line from Palatin Technologies with license from the University of Michigan
Nature of the test: Competitive inhibition binding assay with [I125]-NDP-α-MSH or Eu-NDP-α-MSH, membranes of HEK-293 cells expressing recombinant hMC4-R. On the procedure:
A competitive inhibition binding assay was performed using membrane homogenates prepared from HEK-293 cells that express recombinant hMC4-R, hMC3-R, or hMC5-R, and from B-16 mouse melanoma cells (containing endogenous MC1-R). In some instances, HEK-293 cells that express recombinant hMC1-R were employed. In the examples that follow, all MC3-R, MC4-R and MC5-R values are for human recombinant receptors. […] After incubation for 60 minutes at 37° C., the assay mixture was filtered and the membranes washed three times with ice-cold buffer. Filters were dried and counted in a gamma counter for bound radioactivity. […] Maximal specific binding (100%) was defined as the difference in radioactivity (cpm) bound to cell membranes in the absence and presence of 1 μM NDP-α-MSH. […] Ki values for test peptides of the present invention were determined using Graph-Pad Prism® curve-fitting software.
Alternatively, a competitive inhibition binding assay was performed employing Eu-NDP-α-MSH (PerkinElmer Life Sciences catalog No. AD0225) with determination by time-resolved fluorometry (TRF) of the lanthanide chelate. […] After incubation for 90 minutes at 37° C., the reaction was stopped by filtration over AcroWell 96-well filter plates (Pall Life Sciences). The filter plates were washed 4 times with 200 μL of ice-cold phosphate-buffered saline. DELFIA Enhancement solution (PerkinElmer Life Sciences) was added to each well. […] Each assay was conducted in duplicate and mean values were utilized. Ki values were determined by curve-fitting with Graph-Pad Prism® software using a one-site fixed-slope competition binding model.

Test [2] has as its target T1, human MC4-R. The test can be described thus: cAMP functional assay in HEK-293 T-REx cells expressing human MC4-R, induced with doxycycline 0.1 ng/mL (low density). Conditions: doxycycline 0.1 ng/mL, averages of all comparable assays; for EC50: human MC4-R cAMP assay, read-out: Ec50; for Emax: HEK293-T-REx, maximal cAMP stimulation, NDP-α-MSH = 100%, read-out: Emax. Format: cell-based.

Setting [3] is: human MC4-R, averages of all comparable assays, read-out: Ki.

T1 sequence (P32245 whole entry): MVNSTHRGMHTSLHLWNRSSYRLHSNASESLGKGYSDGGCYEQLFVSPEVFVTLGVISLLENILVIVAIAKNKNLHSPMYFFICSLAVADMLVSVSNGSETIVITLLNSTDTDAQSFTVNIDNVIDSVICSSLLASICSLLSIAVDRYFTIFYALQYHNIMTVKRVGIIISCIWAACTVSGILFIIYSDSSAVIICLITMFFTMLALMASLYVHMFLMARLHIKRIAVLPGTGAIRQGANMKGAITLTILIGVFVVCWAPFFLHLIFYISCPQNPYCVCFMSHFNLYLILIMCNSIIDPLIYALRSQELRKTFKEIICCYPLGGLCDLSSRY

As for `CC(=O)N[C@@H](CCCNC(=N)N)C(=O)N[C@H]1CC(=O)NCCCC[C@@H](C(=O)O)NC(=O)[C@H](Cc2c[nH]c3ccccc23)NC(=O)[C@H](CCCNC(=N)N)NC(=O)[C@@H](Cc2ccccc2)NC(=O)[C@H](COCc2ccccc2)NC1=O` [reference compound], the Ki in test [1] (setting [3]) came to 9 nM. Besides, in test [2], the EC50 is 5 nM.

Take `CC(=O)N[C@@H](CCCCN)C(=O)N[C@H]1CC(=O)NCCCC[C@@H](C(N)=O)NC(=O)[C@H](Cc2c[nH]c3ccccc23)NC(=O)[C@H](CCCNC(=N)N)NC(=O)[C@@H](Cc2ccccc2)NC(=O)[C@H](Cc2c[nH]cn2)NC1=O` [reference compound] (Ac-KDH[dF]RWK-NH2; lactam 2-7): the Ki in test [1] (setting [3]) came out at 9 nM. For the same molecule, in test [2], the maximum response (Emax) is 85% and the EC50 was 5 nM.

For the molecule `CC(=O)N[C@@H](CCCNC(=N)N)C(=O)N[C@H]1CC(=O)NCCCC[C@@H](C(N)=O)NC(=O)[C@H](Cc2c[nH]c3ccccc23)NC(=O)[C@H](CCCNC(=N)N)NC(=O)[C@@H](Cc2ccccc2)NC(=O)[C@H](C)NC1=O` [reference compound] (Ac-RDA[dF]RWK-NH2; lactam 2-7), the Ki in test [1] (setting [3]) is 19 nM. In test [2], the maximal response (Emax) was 74% and the EC50 is 37 nM.

Take `CC(=O)N[C@@H](CCCNC(=N)N)C(=O)N[C@H]1CC(=O)NCCCC[C@@H](C(N)=O)NC(=O)[C@H](Cc2c[nH]c3ccccc23)NC(=O)[C@H](CCCNC(=N)N)NC(=O)[C@@H](Cc2ccccc2)NC(=O)[C@H](CC(N)=O)NC1=O` [reference compound] (Ac-RDN[dF]RWK-NH2; lactam 2-7): the Ki in test [1] came to 32 nM. In test [2], the maximal response (Emax) was found to be 91% and the EC50 turned out to be 42 nM.
